This is an account of results in PMC7002685, “Inhibition of vascular calcification by inositol phosphates derivatized with ethylene glycol oligomers” (Nature Communications, 2020).

Data set [1] deals with T1, Serotonin (5-Hydroxytryptamine) 5-HT2C (Homo sapiens, UniProt P28335).
T1 construct: purchased Eurofins Panlabs Discovery Services Taiwan, Ltd
Briefly: Off-target 271800. Type of data set: binding. As to the method: (§1) The potential off-target activity of 10 µM (OEG2)2-IP4 was assessed against a panel of 87 enzymes, receptors, or ion channels that are used in standard safety pharmacology screens.
(§2) 3.2. Off-target screening assay
(§3) The experiments were conducted by a contract research organization (Eurofins Panlabs Discovery Services Taiwan, Ltd.) and details on the respective assays can be retrieved via the catalog number provided in Supplementary Table 11 from the company’s webpage
(§4) (https://www.eurofinsdiscoveryservices.com/). […]
(§5) At sacrifice the left tibia of animals of the rat model with dietary adenine/high-phosphate-induced uremia and VC was collected, fixed with 70% v/v EtOH and embedded in methyl methacrylate. The trabecular bone compartment is known to be the most metabolic active i.e. actively re-structured bone compartment in CKD. Therefore, histomorphometric and micro-computed tomography (µCT) analysis of bone was performed on the trabecular compartment. Tibial sections were Goldner-stained for histomorphometric analysis of the proximal metaphysis using the AxioVision Release 4.5 software, as […]
(§6) described previously5. […]

The target of data set [2] is T2, Serotonin (5-Hydroxytryptamine) 5-HT2A (Homo sapiens, UniProt P28223).
T2 construct: purchased Eurofins Panlabs Discovery Services Taiwan, Ltd
Briefly: Off-target 271650. The class given is binding. As to the method: as §1, §2, §3, §4, §5, §6

The target of another data set is T3, Cyclooxygenase COX-1 (Homo sapiens, UniProt P23219).
T3 construct: purchased Eurofins Panlabs Discovery Services Taiwan, Ltd
Briefly: Off-target 116020. Type of data set: biochemical. As to the method:
as §1, §2
(§7) The experiments were conducted by a contract research organization (Eurofins Panlabs Discovery
(§8) Services Taiwan, Ltd.) and details on the respective assays can be retrieved via the catalog number
(§9) provided in Supplementary Table 11 from the company’s webpage
as §4

Data set [3] addresses T4, (Rattus norvegicus, UniProt P43140).
T4 construct: purchased Eurofins Panlabs Discovery Services Taiwan, Ltd
The experiment in a line: Off-target 203100. The class given is binding. As to the method:
as §1, §2, §7, §8, §9, §4

For the next data set, the target named is T5, Angiotensin AT1 (Homo sapiens, UniProt P30556).
T5 construct: purchased Eurofins Panlabs Discovery Services Taiwan, Ltd
The experiment in a line: Off-target 210030. Type of data set: binding. As to the method:
as §1, §2, §3, §4, §5, §6

A further data set has as its system Nicotinic Acetylcholine. The experiment in a line: Off-target 258590. Type of data set: binding, Human. The note with it: 10 µM. As to the method:
as §1, §2, §3, §4, §5, §6

The next data set deals with T6, Estrogen ERα (Homo sapiens, UniProt P03372).
T6 construct: purchased Eurofins Panlabs Discovery Services Taiwan, Ltd
The experiment in a line: Off-target 226010. The class given is binding. As to the method:
as §1, §2, §3, §4, §5, §6

A short description of data set [4]: Serum PTH and FGF-23 in adenine model. The class given is in vivo, rat. The source says: However, clearly the bone mineralization may be affected by the mode of action. The effects of the compound on the bone is not sufficiently investigated, and this limitation not sufficiently discussed, since similar to the adenin model, CKD patients may be the prime patient population for treatment. The bone structure should be documented by µCT. Is there an effect of the compound on the mechanical properties? Am I missing the effects of the compound on bone in healthy animals – this would seem decisive?
In response to the reviewer’s comment we investigated the (3D) bone structure of vehicle and (OEG2)2-IP4 treated CKD animals by µCT analysis and compared the results to that of bone samples from control (non-CKD) male Wistar rats of the same age. […]
because of (1) ethical considerations (aiming to limit the number of animals), (2) the primary end-point of the study was to evaluate the effect of (OEG2)2-IP4 on the development of vascular calcification, which was of no relevance for control (non-CKD) animals as they do not develop vascular calcification. […]
In response to the reviewer’s comment we measured concentrations of PTH and FGF-23 in the serum of CKD animals of vehicle and (OEG2)2-IP4 groups both at baseline and at sacrifice. […]

In data set [5] the target is T7, Transporter, Norepinephrine (NET) (Homo sapiens, UniProt P23975).
T7 construct: purchased Eurofins Panlabs Discovery Services Taiwan, Ltd
Briefly: Off-target 204410. The class given is binding. As to the method:
as §1, §2, §3, §4, §5, §6

In data set [6] the target is T8, Platelet Activating Factor (PAF) (Homo sapiens, UniProt P25105).
T8 construct: purchased Eurofins Panlabs Discovery Services Taiwan, Ltd
Briefly: Off-target 265010. Type of data set: binding. As to the method:
as §1, §2, §7, §8, §9, §4

The target of another data set is T9, Cannabinoid CB1 (Homo sapiens, UniProt P21554).
T9 construct: purchased Eurofins Panlabs Discovery Services Taiwan, Ltd
The experiment in a line: Off-target 217030. The class given is binding. As to the method:
as §1, §2, §3, §4, §5, §6

A further data set deals with T10, Adenosine A1 (Homo sapiens, UniProt P30542).
T10 construct: purchased Eurofins Panlabs Discovery Services Taiwan, Ltd
Briefly: Off-target 200510. Type of data set: binding. As to the method:
as §1, §2, §7, §8, §9, §4

The subject of data set [7] is Glycine, Strychnine-Sensitive. Briefly: Off-target 239000. The class given is binding, Rat. Conditions: 10 µM.

For orientation: inhibition means the relative decrease from the control value, in per cent. Broadly, the % Inhibition is the change of the read-out against control, counted positive when it falls.

T4 sequence (P43140 whole entry): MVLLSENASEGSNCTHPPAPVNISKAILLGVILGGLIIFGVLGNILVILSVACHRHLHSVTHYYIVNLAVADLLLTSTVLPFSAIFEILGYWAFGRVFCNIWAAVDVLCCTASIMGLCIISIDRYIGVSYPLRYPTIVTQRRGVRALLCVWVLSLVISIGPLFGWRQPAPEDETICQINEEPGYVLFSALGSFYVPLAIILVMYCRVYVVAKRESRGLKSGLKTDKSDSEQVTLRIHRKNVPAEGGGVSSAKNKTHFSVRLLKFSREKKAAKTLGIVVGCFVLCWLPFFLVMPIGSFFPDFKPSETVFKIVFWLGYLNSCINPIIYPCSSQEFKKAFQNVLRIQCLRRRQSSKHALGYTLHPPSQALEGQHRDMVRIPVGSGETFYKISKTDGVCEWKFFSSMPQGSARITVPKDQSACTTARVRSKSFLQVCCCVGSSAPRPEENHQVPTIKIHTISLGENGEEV
T7 sequence (P23975 whole entry): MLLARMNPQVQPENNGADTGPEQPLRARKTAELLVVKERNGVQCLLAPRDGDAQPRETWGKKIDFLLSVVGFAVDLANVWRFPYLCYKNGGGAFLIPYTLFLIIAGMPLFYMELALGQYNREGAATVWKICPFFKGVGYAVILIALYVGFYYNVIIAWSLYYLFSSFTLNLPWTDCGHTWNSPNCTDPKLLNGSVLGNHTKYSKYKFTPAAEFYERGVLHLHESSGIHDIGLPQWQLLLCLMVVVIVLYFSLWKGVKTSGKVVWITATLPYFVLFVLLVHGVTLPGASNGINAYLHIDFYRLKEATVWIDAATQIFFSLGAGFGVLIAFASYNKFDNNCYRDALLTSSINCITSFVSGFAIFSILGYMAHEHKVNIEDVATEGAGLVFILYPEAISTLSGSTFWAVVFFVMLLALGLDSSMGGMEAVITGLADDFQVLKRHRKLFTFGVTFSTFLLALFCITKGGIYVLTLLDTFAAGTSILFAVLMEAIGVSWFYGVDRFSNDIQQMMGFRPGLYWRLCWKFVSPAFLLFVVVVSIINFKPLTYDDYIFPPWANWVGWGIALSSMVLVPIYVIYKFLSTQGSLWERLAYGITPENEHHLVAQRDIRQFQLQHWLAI
T9 sequence (P21554 whole entry): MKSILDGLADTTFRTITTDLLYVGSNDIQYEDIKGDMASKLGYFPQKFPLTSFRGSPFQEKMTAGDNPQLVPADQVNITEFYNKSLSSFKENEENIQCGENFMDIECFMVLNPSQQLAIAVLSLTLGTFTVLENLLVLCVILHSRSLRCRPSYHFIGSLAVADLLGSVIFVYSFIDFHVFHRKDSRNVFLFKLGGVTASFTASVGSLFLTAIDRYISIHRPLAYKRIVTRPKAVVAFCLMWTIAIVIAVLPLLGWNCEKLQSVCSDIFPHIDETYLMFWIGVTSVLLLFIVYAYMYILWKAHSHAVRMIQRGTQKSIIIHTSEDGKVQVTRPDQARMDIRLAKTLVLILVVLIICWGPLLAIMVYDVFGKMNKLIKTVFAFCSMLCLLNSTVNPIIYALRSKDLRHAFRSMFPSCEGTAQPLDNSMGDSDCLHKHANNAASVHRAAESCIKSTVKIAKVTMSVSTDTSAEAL
T6 sequence (P03372 whole entry): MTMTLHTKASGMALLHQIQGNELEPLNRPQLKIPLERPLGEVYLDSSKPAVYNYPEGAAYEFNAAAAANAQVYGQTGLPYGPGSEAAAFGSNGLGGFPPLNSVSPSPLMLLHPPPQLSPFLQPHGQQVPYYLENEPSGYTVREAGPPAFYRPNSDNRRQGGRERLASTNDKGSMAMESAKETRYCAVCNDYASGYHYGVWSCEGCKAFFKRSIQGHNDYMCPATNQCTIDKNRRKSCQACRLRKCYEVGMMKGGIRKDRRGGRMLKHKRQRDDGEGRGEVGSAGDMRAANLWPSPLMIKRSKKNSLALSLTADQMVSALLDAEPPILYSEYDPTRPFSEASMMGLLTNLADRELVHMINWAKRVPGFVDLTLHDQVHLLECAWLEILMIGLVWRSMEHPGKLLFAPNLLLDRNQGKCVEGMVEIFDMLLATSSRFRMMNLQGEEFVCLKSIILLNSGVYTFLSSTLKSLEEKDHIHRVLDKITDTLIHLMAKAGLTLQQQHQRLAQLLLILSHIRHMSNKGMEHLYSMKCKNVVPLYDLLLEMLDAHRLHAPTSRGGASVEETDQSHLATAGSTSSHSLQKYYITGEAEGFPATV
T10 sequence (P30542 whole entry): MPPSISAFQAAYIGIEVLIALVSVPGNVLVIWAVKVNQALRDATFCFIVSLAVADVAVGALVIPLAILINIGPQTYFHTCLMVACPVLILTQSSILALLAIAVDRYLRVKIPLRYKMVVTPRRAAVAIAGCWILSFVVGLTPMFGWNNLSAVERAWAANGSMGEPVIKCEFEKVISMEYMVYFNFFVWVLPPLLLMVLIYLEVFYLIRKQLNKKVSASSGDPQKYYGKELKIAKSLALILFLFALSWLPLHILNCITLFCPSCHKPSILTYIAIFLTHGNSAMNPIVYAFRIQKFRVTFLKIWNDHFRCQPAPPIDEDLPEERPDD
T5 sequence (P30556 whole entry): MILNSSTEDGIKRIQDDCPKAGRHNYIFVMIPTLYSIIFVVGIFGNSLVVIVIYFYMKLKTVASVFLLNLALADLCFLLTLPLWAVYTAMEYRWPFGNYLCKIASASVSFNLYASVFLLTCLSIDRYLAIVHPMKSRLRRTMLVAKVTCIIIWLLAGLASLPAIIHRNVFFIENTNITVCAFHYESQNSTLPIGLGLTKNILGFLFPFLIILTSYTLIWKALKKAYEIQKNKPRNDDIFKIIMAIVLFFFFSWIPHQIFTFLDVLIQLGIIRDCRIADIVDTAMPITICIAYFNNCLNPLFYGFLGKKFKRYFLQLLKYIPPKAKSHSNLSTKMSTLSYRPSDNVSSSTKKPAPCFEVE
T3 sequence (P23219 24-599): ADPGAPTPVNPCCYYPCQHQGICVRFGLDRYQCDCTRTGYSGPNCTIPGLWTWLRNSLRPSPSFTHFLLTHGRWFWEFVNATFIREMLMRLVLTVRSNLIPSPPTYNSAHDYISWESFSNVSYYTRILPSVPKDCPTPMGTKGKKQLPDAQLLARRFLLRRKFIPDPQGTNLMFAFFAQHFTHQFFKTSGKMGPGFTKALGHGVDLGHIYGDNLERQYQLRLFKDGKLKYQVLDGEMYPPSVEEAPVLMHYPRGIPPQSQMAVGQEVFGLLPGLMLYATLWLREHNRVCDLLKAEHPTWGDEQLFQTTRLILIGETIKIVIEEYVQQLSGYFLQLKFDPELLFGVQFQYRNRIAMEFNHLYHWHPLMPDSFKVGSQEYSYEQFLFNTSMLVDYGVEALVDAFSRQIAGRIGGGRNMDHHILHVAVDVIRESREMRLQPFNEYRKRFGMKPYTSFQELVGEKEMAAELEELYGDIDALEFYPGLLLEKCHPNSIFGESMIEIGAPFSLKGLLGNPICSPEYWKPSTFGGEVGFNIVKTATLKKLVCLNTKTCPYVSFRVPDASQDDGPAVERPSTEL
T1 sequence (P28335 33-458): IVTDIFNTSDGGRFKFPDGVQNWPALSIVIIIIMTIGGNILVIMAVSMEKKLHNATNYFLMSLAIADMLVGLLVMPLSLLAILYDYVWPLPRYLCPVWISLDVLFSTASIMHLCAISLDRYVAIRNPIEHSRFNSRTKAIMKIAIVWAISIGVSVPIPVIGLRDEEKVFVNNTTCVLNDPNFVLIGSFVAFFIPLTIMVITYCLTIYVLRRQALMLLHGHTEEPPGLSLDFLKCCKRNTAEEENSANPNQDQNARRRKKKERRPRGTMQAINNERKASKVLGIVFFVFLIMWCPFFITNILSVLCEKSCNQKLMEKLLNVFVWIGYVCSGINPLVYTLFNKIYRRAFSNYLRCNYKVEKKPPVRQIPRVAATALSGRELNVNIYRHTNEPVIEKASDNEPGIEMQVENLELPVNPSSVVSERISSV
T8 sequence (P25105 whole entry): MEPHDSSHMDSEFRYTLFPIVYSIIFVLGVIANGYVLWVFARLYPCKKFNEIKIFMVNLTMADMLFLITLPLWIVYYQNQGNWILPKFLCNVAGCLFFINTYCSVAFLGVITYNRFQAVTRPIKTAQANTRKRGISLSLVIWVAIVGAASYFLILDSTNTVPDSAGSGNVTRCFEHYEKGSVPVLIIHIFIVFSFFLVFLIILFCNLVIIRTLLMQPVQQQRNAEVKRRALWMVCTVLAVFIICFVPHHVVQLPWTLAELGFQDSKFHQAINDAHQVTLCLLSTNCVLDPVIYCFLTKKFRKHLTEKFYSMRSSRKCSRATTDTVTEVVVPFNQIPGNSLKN
T2 sequence (P28223 whole entry): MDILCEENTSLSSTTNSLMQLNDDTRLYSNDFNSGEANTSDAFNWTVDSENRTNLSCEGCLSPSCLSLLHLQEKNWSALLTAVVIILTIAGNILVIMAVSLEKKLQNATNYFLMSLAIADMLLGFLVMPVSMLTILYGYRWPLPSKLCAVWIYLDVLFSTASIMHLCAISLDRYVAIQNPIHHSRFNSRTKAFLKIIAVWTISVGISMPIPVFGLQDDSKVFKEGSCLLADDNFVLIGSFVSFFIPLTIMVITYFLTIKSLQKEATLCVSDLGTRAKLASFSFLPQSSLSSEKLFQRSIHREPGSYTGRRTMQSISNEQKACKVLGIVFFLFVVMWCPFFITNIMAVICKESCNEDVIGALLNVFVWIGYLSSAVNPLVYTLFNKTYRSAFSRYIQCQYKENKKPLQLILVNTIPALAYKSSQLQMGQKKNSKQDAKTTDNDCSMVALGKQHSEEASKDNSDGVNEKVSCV

In the case of `COCCOCCO[C@@H]1[C@@H](OP(=O)(O)O)[C@H](OCCOCCOC)[C@@H](OP(=O)(O)O)[C@@H](OP(=O)(O)O)[C@H]1OP(=O)(O)O` [(OEG2)2-IP4, 4,6-Di-O-(methoxy-diethyleneglycol)-myo-inositol-1,2,3,5-tetrakis(phosphate)], the inhibition at 10 µM in data set [1] is -5%; in data set [2] it was -1%; against Cyclooxygenase COX-1, -2%; in data set [3], 1%; on Angiotensin AT1, 0%; at Estrogen ERα, -1%. Also, the inhibition at 10 µM was 20% in data set [5], -7% in data set [6], -7% against Cannabinoid CB1 and 4% at Adenosine A1. The “% Inhibition” value in the data set with Nicotinic Acetylcholine is listed as -5%; in data set [7], -2%. For the same molecule, the “serum PTH levels” value in data set [4] (5, 15, 50 mg/kg) is given as “did not differ between treatment groups”. Also, in data set [4] (lowest (5 mg/kg) dose), the “serum FGF-23 compared to vehicle” value is listed as “significantly higher”.
